A short description of the data set: Pharmacokinetic experiment of memantine paroxetine cocrystal salt in rats (plasma memantine by LC-MS/MS). The data set is classed as in vivo, SD rat. The settings on record: gavage. From the text:
Determination of the pharmacokinetic parameters of […] and paroxetine in rat plasma by LC-MS/MS method
The memantine paroxetine cocrystal salt prepared in embodiment 1; memantine hydrochloride; dexamethasone (Intermediate inspection office); ammonium formate; methanol is all chromatographic pure (Merck Company); formic acid is all chromatographic pure (Aladdin Company); acetonitrile is all chromatographic pure (Merck Company); experimental water is deionized purified water.
SD rat, SPF grade, male, weight 200-250 g, purchased from Zhejiang Experimental Animal Center, production license No.: SCXK (Zhejiang) 2014-0001.
Liquid mass spectrometer: Thermo Finnigan TSQ Quantum, composed of Surveyor As, Surveyor MS Pump Plus and TSQ Quantum, Thermo Fisher Scientific Company; Sartorius BP-211D electronic balance; Thermo STRATOS high speed freezing centrifuge; Eppendorf PCB-11 micro vortex mixer; Milli-Q Grandient pure water meter.
Chromatographic column: Waters Cortecs C18 (2.1 mm×50 mm, 2.7 μm); column temperature: 35° C.; mobile phase: acetonitrile-[…] ammonium formate containing 0.1% formic acid (10:90); flow rate: 0.2 mL·min^−1; sample injection volume: 5 μL.
Ion detection method: multiple reaction monitoring (MRM); ionic polarity: positive ion (Positive); ionization mode: electrospray ionization (ESI); ionization voltage (IS): 3000.0V; temperature: 300° C.; sheath gas: 35; auxiliary gas: 30.
10 rats are randomly divided into 2 groups, 5 rats in each group: group A: 5.6 mg/kg memantine hydrochloride; group B: 17.4 mg/kg cocrystal salt;
The rats are fasted for 12 h before the experiment, and the tested drugs re given by gavage with the volume of 1 mL/100 g. Before and 5, 10, 20, 40, 60, 120, 180, 240, 360 and 480 min after administration, 0.5 mL of blood is collected through the fundus vein plexus. Anticoagulate the heparin. Centrifugate at 4000 rpm for 10 min, and separate the plasma. It can be used for the determination of memantine concentration.

The mark [1] stands for this setting: male SD rats, same molar dose: group A 5.6 mg/kg memantine hydrochloride, group B 17.4 mg/kg cocrystal salt, average value.

The results in this text go back to patent US11839607B2, “Memantine paroxetine cocrystal salt and its preparation method, pharmaceutical composition and application” (priority 2018, dated 2023).

Like-named read-outs stand apart in the source and are kept apart here.

Broadly, the AUC(0-t) is the area under the concentration-time curve up to a stated or last time point. A word on the Cmax: it is the highest concentration seen after dosing. In general, Tmax refers to the time at which the peak concentration occurs. Take `CC12CC3CC(C)(C1)CC(N)(C3)C2.Fc1ccc([C@@H]2CCNC[C@H]2COc2ccc3c(c2)OCO3)cc1.O.O.O.O=S(=O)(O)O` [cocrystal salt, C19H20FNO3·C12H21N·H2SO4·3H2O]: under setting [1], the “AUC(0-t)” value was determined as 1982.124 ng·h/L, the “AUC(0-∞)” value is 3.16723 ng·h/mL, the CLz/F worked out at 94414.6 mL/min/kg and the Cmax is listed as 449.186 ng/L. In addition, under setting [1], the “MRT(0-t)” value stood at 3.298 h, the “MRT(0-∞)” value is listed as 8.1 h, the T1/2z is recorded as 5.605 h and the Tmax is 52.1 min. Further, where the note is “same molar dose, rats”, the “AUC(0-∞) ratio, cocrystal salt versus memantine hydrochloride” value is listed as 4.10 times; the “Cmax ratio, cocrystal salt versus memantine hydrochloride” value is on record as 1.62 times; the “T1/2 ratio, cocrystal salt versus memantine hydrochloride” value amounted to 2.79 times; the “Tmax ratio, cocrystal salt versus memantine hydrochloride” value stood at 1.41 times.

One may read the AUC(0-inf) as the area under the concentration-time curve extrapolated to infinity. For `CC12CC3CC(C)(C1)CC(N)(C3)C2.Cl` [memantine hydrochloride, 3,5-Dimethyl-1-aminoadamantane hydrochloride, reference compound], under “Sprague-Dawley (SD), rat, po, male SD rats, same molar dose: group A 5.6 mg/kg memantine hydrochloride, group B 17.4 mg/kg cocrystal salt, average value”, the AUC(0-inf) worked out at 0.773 ng·h/mL. The AUC(0-t) (Sprague-Dawley (SD), rat, po, male SD rats, same molar dose: group A 5.6 mg/kg memantine hydrochloride, group B 17.4 mg/kg cocrystal salt, average value, read-out: AUC(0-t)) worked out at 714 ng·h/L. The Cmax (Sprague-Dawley (SD), rat, po, male SD rats, same molar dose: group A 5.6 mg/kg memantine hydrochloride, group B 17.4 mg/kg cocrystal salt, average value, read-out: Cmax) came to 276 ng/L. In addition, the MRT last (Sprague-Dawley (SD), rat, po, male SD rats, same molar dose: group A 5.6 mg/kg memantine hydrochloride, group B 17.4 mg/kg cocrystal salt, average value, read-out: MRT(0-t)) came to 2.43 h. Where the note is “Sprague-Dawley (SD), rat, po, male SD rats, same molar dose: group A 5.6 mg/kg memantine hydrochloride, group B 17.4 mg/kg cocrystal salt, average value, read-out: MRT(0-∞)”, the MRT inf was found to be 3.05 h. Further, the time to peak (Tmax) (Sprague-Dawley (SD), rat, po, male SD rats, same molar dose: group A 5.6 mg/kg memantine hydrochloride, group B 17.4 mg/kg cocrystal salt, average value, read-out: Tmax) was found to be 37 min. For the same molecule, under setting [1], the CLz/F came to 123437.1 mL/min/kg and the T1/2z is on record as 2.009 h.
